Earlier results on one compound are cited in US9375436B2, “Androgen treatment in females” (priority 2004, dated 2016).

This series relates to older mice. As to conditions: cited from earlier work.

For the compound `COC1=C(OC)C(=O)C(C/C=C(\C)CC/C=C(\C)CC/C=C(\C)CC/C=C(\C)CC/C=C(\C)CC/C=C(\C)CC/C=C(\C)CC/C=C(\C)CC/C=C(\C)CCC=C(C)C)=C(C)C1=O` [CoQ10, coenzyme Q10], the oocytes numbers result is given as “increases oocytes numbers”.
